# Measured values reported in patent US20250295646A1, “METHODS OF USE OF T-TYPE CALCIUM CHANNEL MODULATORS” (Praxis Precision Medicines, Inc., priority 2022, published 2025).
# Experiments:
# [1] = Within-participant escalating dose trial Part B: safety and tolerability; assay type: in vivo, human; details: for dose levels well-tolerated with titration: titrated dosing schedule, per day
# [2] = Example 16 Part B: treatment emergent adverse events, down-titration, discontinuation
# Source text: (§1) Patients were scheduled for Safety Follow-up on Day 70 (±1 day) in the clinic for the final clinical trial assessment.
# [3] = test system: adult patients with essential tremor; assay: Example 16: Clinical Global Impression (CGI-I, CGI-S); assay type: in vivo, human; details: for participants with CGI-I much improved / participants with CGI-I score reflecting no change in symptoms: Part B OLT
# Source text: as §1
# [4] = Part B Randomized Withdrawal (N = 11), arm (Formula (I) or placebo) not stated
# [5] = Part B, reported by the same patient
# [6] = Part B RWD (RWAS), Day 56, n 6, change from randomization baseline
# [7] = Part B RWD (RWAS), Day 70, n 5, change from randomization baseline
compound,measurement,setting,value
"CC(C)(C)NC(=O)CN1CCC(CNC(=O)c2cc(F)cc(Cl)c2)CC1 [compound of formula (I), N-((1-(2-(tert-butylamino)-2-oxoethyl)piperidin-4-yl)methyl)-3-chloro-5-fluorobenzamide]",maximum tolerated dosage in the titration scheme,[1]; highest dose tested 120 mg,no maximum tolerated dosage was identified
same,Cardiac Disorders,"[1]; human, in vivo, 31 days",4 n (%)
same,Chest discomfort,"[1]; human, in vivo, 31 days",2 n (%)
same,Dizziness,"[1]; human, in vivo, 31 days",3 n (%)
same,General Disorders and Administration Site Conditions,"[1]; human, in vivo, 31 days",6 n (%)
same,Headache,"[1]; human, in vivo, 31 days",2 n (%)
same,Intoxicated sensation,"[1]; human, in vivo, 31 days",2 n (%)
same,Medical device site dermatitis,"[1]; human, in vivo, 31 days",3 n (%)
same,Nervous System Disorders,"[1]; human, in vivo, 31 days",5 n (%)
same,Palpitations,"[1]; human, in vivo, 31 days",2 n (%)
same,Participants with at least one TEAE,"[1]; human, in vivo, 31 days",12 n (%)
same,treatment related ECG or EEG abnormalities,[1]; in vivo,no treatment related ECG or EEG abnormalities
same,dose levels well-tolerated with titration,[1],≤ 120 mg
same,TEAE associated with discontinuation: Confusional state,[2]; Part B,1
same,TEAE associated with discontinuation: Cyst,[2]; Part B,1
same,TEAE associated with discontinuation: Disturbance in attention,[2]; Part B,1
same,TEAE leading to down titration: Confusional state,[2]; Part B,1
same,TEAE leading to down titration: Disturbance in attention,[2]; Part B,1
same,TEAE leading to down titration: Dizziness postural,[2]; Part B,1
same,TEAE leading to down titration: Paraesthesia,[2]; Part B,1
same,TEAE leading to down titration: Somnolence,[2]; Part B,1
same,participants who discontinued administration,[2]; Part B,three of 14 participants
same,participants who down-titrated,[2]; Part B,Four of 14 participants
same,"TEAE Anxiety, participants",[2]; Part B Open Label (N = 14),1
same,"TEAE Cognitive Disorder, participants",[2]; Part B Open Label (N = 14),1
same,"TEAE Constipation, participants",[2]; Part B Open Label (N = 14),6
same,"TEAE Dizziness, participants",[2]; Part B Open Label (N = 14),4
same,"TEAE Fatigue, participants",[2]; Part B Open Label (N = 14),3
same,"TEAE Headache, participants",[2]; Part B Open Label (N = 14),1
same,"TEAE Insomnia, participants",[2]; Part B Open Label (N = 14),2
same,"TEAE Paraesthesia, participants",[2]; Part B Open Label (N = 14),2
same,"TEAE Fatigue, participants",[2]; [4],1
same,"TEAE Headache, participants",[2]; [4],1
same,dosing well-tolerated with titration,"[2]; Part B, essential tremor patients",up to 120 mg
same,TEAE associated with discontinuation: Gait disturbances,[2]; [5],1
same,TEAE associated with discontinuation: Hypotension,[2]; [5],1
same,TEAE associated with discontinuation: Muscle fatigue,[2]; [5],1
same,TEAE associated with discontinuation: Speech disorder,[2]; [5],1
same,CGI-I Score 0 not assessed,"[3]; Part A (FAS), Day 7, n 6",0 n (%)
same,CGI-I Score 1 very much improved,"[3]; Part A (FAS), Day 7, n 6",0 n (%)
same,CGI-I Score 2 Much improved,"[3]; Part A (FAS), Day 7, n 6",1 n (%)
same,CGI-I Score 3 minimally improved,"[3]; Part A (FAS), Day 7, n 6",1 (16.7) n (%)
same,CGI-I Score 4 no change,"[3]; Part A (FAS), Day 7, n 6",4 (66.7) n (%)
same,CGI-I Score 5 minimally worse,"[3]; Part A (FAS), Day 7, n 6",0 n (%)
same,CGI-I Score 6 much worse,"[3]; Part A (FAS), Day 7, n 6",0 n (%)
same,CGI-I Score 7 very much worse,"[3]; Part A (FAS), Day 7, n 6",0 n (%)
same,CGI-I Score 0 not assessed,"[3]; Part A (FAS), Day 14, n 6",0 n (%)
same,CGI-I Score 1 very much improved,"[3]; Part A (FAS), Day 14, n 6",0 n (%)
same,CGI-I Score 2 Much improved,"[3]; Part A (FAS), Day 14, n 6",1 n (%)
same,CGI-I Score 3 minimally improved,"[3]; Part A (FAS), Day 14, n 6",5 (83.3) n (%)
same,CGI-I Score 4 no change,"[3]; Part A (FAS), Day 14, n 6",0 n (%)
same,CGI-I Score 5 minimally worse,"[3]; Part A (FAS), Day 14, n 6",0 n (%)
same,CGI-I Score 6 much worse,"[3]; Part A (FAS), Day 14, n 6",0 n (%)
same,CGI-I Score 7 very much worse,"[3]; Part A (FAS), Day 14, n 6",0 n (%)
same,participants with CGI-I score not changed relative to pre-dose baseline,"[3]; Part A, Day 7",66.7%
same,participants with CGI score minimally improved,"[3]; Part A, Day 14",83.3%
same,participants with CGI score much improved,"[3]; Part A, Day 14",16.7%
same,CGI-I Score 0 not assessed,"[3]; Part B OLT (FAS), Day 7, n 12",1 (8.3) n (%)
same,CGI-I Score 1 very much improved,"[3]; Part B OLT (FAS), Day 7, n 12",0 n (%)
same,CGI-I Score 2 Much improved,"[3]; Part B OLT (FAS), Day 7, n 12",1 n (%)
same,CGI-I Score 3 minimally improved,"[3]; Part B OLT (FAS), Day 7, n 12",5 (41.7) n (%)
same,CGI-I Score 4 no change,"[3]; Part B OLT (FAS), Day 7, n 12",4 (33.3) n (%)
same,CGI-I Score 5 minimally worse,"[3]; Part B OLT (FAS), Day 7, n 12",1 (8.3) n (%)
same,CGI-I Score 6 much worse,"[3]; Part B OLT (FAS), Day 7, n 12",0 n (%)
same,CGI-I Score 7 very much worse,"[3]; Part B OLT (FAS), Day 7, n 12",0 n (%)
same,CGI-I Score 0 not assessed,"[3]; Part B OLT (FAS), Day 21, n 12",0 n (%)
same,CGI-I Score 1 very much improved,"[3]; Part B OLT (FAS), Day 21, n 12",1 (8.3) n (%)
same,CGI-I Score 2 Much improved,"[3]; Part B OLT (FAS), Day 21, n 12",1 n (%)
same,CGI-I Score 3 minimally improved,"[3]; Part B OLT (FAS), Day 21, n 12",5 (41.7) n (%)
same,CGI-I Score 4 no change,"[3]; Part B OLT (FAS), Day 21, n 12",5 (41.7) n (%)
same,CGI-I Score 5 minimally worse,"[3]; Part B OLT (FAS), Day 21, n 12",0 n (%)
same,CGI-I Score 6 much worse,"[3]; Part B OLT (FAS), Day 21, n 12",0 n (%)
same,CGI-I Score 7 very much worse,"[3]; Part B OLT (FAS), Day 21, n 12",0 n (%)
same,CGI-I Score 0 not assessed,"[3]; Part B OLT (FAS), Day 42, n 11",0 n (%)
same,CGI-I Score 1 very much improved,"[3]; Part B OLT (FAS), Day 42, n 11",0 n (%)
same,CGI-I Score 2 Much improved,"[3]; Part B OLT (FAS), Day 42, n 11",4 n (%)
same,CGI-I Score 3 minimally improved,"[3]; Part B OLT (FAS), Day 42, n 11",4 (36.4) n (%)
same,CGI-I Score 4 no change,"[3]; Part B OLT (FAS), Day 42, n 11",3 (27.3) n (%)
same,CGI-I Score 5 minimally worse,"[3]; Part B OLT (FAS), Day 42, n 11",0 n (%)
same,CGI-I Score 6 much worse,"[3]; Part B OLT (FAS), Day 42, n 11",0 n (%)
same,CGI-I Score 7 very much worse,"[3]; Part B OLT (FAS), Day 42, n 11",0 n (%)
same,participants with CGI-I much improved,[3]; Day 7,8.3%
same,participants with CGI-I score reflecting no change in symptoms,[3]; Day 7,33.3%
same,participants with CGI-I much improved,[3]; Day 42,36.4%
same,participants with CGI-I score reflecting no change in symptoms,[3]; Day 42,27.3%
same,CGI-I Score 0 not assessed,[3]; [6],0 n (%)
same,CGI-I Score 1 very much improved,[3]; [6],0 n (%)
same,CGI-I Score 2 Much improved,[3]; [6],0 n (%)
same,CGI-I Score 3 minimally improved,[3]; [6],1 (16.7) n (%)
same,CGI-I Score 4 no change,[3]; [6],5 (83.3) n (%)
same,CGI-I Score 5 minimally worse,[3]; [6],0 n (%)
same,CGI-I Score 6 much worse,[3]; [6],0 n (%)
same,CGI-I Score 7 very much worse,[3]; [6],0 n (%)
same,CGI-I Score 0 not assessed,[3]; [7],0 n (%)
same,CGI-I Score 1 very much improved,[3]; [7],0 n (%)
same,CGI-I Score 2 Much improved,[3]; [7],0 n (%)
same,CGI-I Score 3 minimally improved,[3]; [7],0 n (%)
same,CGI-I Score 4 no change,[3]; [7],4 (80.0) n (%)
same,CGI-I Score 5 minimally worse,[3]; [7],1 (20.0) n (%)
same,CGI-I Score 6 much worse,[3]; [7],0 n (%)
same,CGI-I Score 7 very much worse,[3]; [7],0 n (%)
"CC(C)(C)NC(=O)CN1CCC(CNC(=O)c2cc(F)cc(Cl)c2)CC1.Cl [compound of formula (II), N-((1-(2-(tert-butylamino)-2-oxoethyl)piperidin-4-yl)methyl)-3-chloro-5-fluorobenzamide hydrochloride]",dose levels well-tolerated with titration,[1],up to 120 mg
